# From PubChem BioAssay (NCI)
#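 Where inhibition never reached the appropriate level, the endpoint shown equals the highest concentration tested. Otherwise, values were interpolated linearly from a five-concentration, 48-hour dose response in 96-well plates. The concentration for 50% growth inhibition is given as GI50. At the TGI there is no net growth.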
# Assays:
# Experiment in all cases: growth of human tumour cells (NCI), 48 h
# SF-539 CNS = system: SF-539 CNS
# MOLT-4 leukemia = system: MOLT-4 leukemia
# SNB-19 CNS = system: SNB-19 CNS
# HCT-116 colon = system: HCT-116 colon
# SK-MEL-5 melanoma = system: SK-MEL-5 melanoma
# OVCAR-4 ovarian = system: OVCAR-4 ovarian
# U251 CNS = system: U251 CNS
# HCT-15 colon = system: HCT-15 colon
# SN12C renal = system: SN12C renal
# UACC-62 melanoma = system: UACC-62 melanoma
# CCRF-CEM leukemia = system: CCRF-CEM leukemia
# SW-620 colon = system: SW-620 colon
# UACC-257 melanoma = system: UACC-257 melanoma
# BT-549 breast = system: BT-549 breast
# OVCAR-8 ovarian = system: OVCAR-8 ovarian
# NCI-H23 lung = system: NCI-H23 lung
# M14 melanoma = system: M14 melanoma
# SF-295 CNS = system: SF-295 CNS
# HCC-2998 colon = system: HCC-2998 colon
# SNB-75 CNS = system: SNB-75 CNS
# NCI-H460 lung = system: NCI-H460 lung
# KM12 colon = system: KM12 colon
# T-47D breast = system: T-47D breast
# CAKI-1 renal = system: CAKI-1 renal
# HOP-92 NSCLC = system: HOP-92 NSCLC
# OVCAR-5 ovarian = system: OVCAR-5 ovarian
# PC-3 prostate = system: PC-3 prostate
# SK-OV-3 ovarian = system: SK-OV-3 ovarian
# HOP-62 NSCLC = system: HOP-62 NSCLC
# A549 NSCLC = system: A549 NSCLC
# NCI/ADR-RES ovarian = system: NCI/ADR-RES ovarian
# MDA-MB-231 breast = system: MDA-MB-231 breast
# NCI-H226 lung = system: NCI-H226 lung
# HL-60(TB) leukemia = system: HL-60(TB) leukemia
# HS 578T breast = system: HS 578T breast
# RPMI-8226 leukemia = system: RPMI-8226 leukemia
# K-562 leukemia = system: K-562 leukemia
# OVCAR-3 ovarian = system: OVCAR-3 ovarian
# MDA-MB-435 = system: MDA-MB-435
# LOX IMVI melanoma = system: LOX IMVI melanoma
# SK-MEL-28 melanoma = system: SK-MEL-28 melanoma
# RXF 393 renal = system: RXF 393 renal
# SK-MEL-2 melanoma = system: SK-MEL-2 melanoma
# HT29 colon = system: HT29 colon
# UO-31 renal = system: UO-31 renal
# A498 renal = system: A498 renal
# MCF7 breast = system: MCF7 breast
# IGROV1 ovarian = system: IGROV1 ovarian
# MDA-MB-468 breast = system: MDA-MB-468 breast
# SF-268 CNS = system: SF-268 CNS
# MALME-3M melanoma = system: MALME-3M melanoma
# TK-10 renal = system: TK-10 renal
# NCI-H522 lung = system: NCI-H522 lung
# DU-145 prostate = system: DU-145 prostate
# ACHN renal = system: ACHN renal
# 786-0 renal = system: 786-0 renal
# COLO 205 colon = system: COLO 205 colon
# EKVX NSCLC = system: EKVX NSCLC
structure (smiles),measurement,setting,value
Cn1cc(-c2cc(N)n3nc(-c4cn(C)c5ncccc45)cc3n2)c2cccnc21,GI50,SF-539 CNS,16.4 µM
same,TGI,SF-539 CNS,32.1 µM
same,GI50,MOLT-4 leukemia,17.7 µM
same,TGI,MOLT-4 leukemia,51.6 µM
same,GI50,SNB-19 CNS,18.6 µM
same,TGI,SNB-19 CNS,38.4 µM
same,GI50,HCT-116 colon,16.8 µM
same,TGI,HCT-116 colon,38.2 µM
same,GI50,SK-MEL-5 melanoma,14.4 µM
same,TGI,SK-MEL-5 melanoma,28.2 µM
same,GI50,OVCAR-4 ovarian,17.2 µM
same,TGI,OVCAR-4 ovarian,36.2 µM
same,GI50,U251 CNS,19.8 µM
same,TGI,U251 CNS,46.4 µM
same,GI50,HCT-15 colon,16.4 µM
same,TGI,HCT-15 colon,31.2 µM
same,GI50,SN12C renal,15.2 µM
same,TGI,SN12C renal,30.4 µM
same,GI50,UACC-62 melanoma,29 µM
same,TGI,UACC-62 melanoma,> 100 µM
same,GI50,CCRF-CEM leukemia,5.88 µM
same,TGI,CCRF-CEM leukemia,94.5 µM
same,GI50,SW-620 colon,13.3 µM
same,TGI,SW-620 colon,29.7 µM
same,GI50,UACC-257 melanoma,29.2 µM
same,TGI,UACC-257 melanoma,> 100 µM
same,GI50,BT-549 breast,17.4 µM
same,TGI,BT-549 breast,39.1 µM
same,GI50,OVCAR-8 ovarian,18.7 µM
same,TGI,OVCAR-8 ovarian,46 µM
same,GI50,NCI-H23 lung,17.4 µM
same,TGI,NCI-H23 lung,32 µM
same,GI50,M14 melanoma,16 µM
same,TGI,M14 melanoma,30.9 µM
same,GI50,SF-295 CNS,17.5 µM
same,TGI,SF-295 CNS,38.8 µM
same,GI50,HCC-2998 colon,15.1 µM
same,TGI,HCC-2998 colon,28.3 µM
same,GI50,SNB-75 CNS,11.1 µM
same,TGI,SNB-75 CNS,30.6 µM
same,GI50,NCI-H460 lung,15.9 µM
same,TGI,NCI-H460 lung,32.6 µM
same,GI50,KM12 colon,16.6 µM
same,TGI,KM12 colon,32.3 µM
same,GI50,T-47D breast,42.7 µM
same,TGI,T-47D breast,> 100 µM
same,GI50,CAKI-1 renal,16.9 µM
same,TGI,CAKI-1 renal,35.6 µM
same,GI50,HOP-92 NSCLC,11.1 µM
same,TGI,HOP-92 NSCLC,29.1 µM
same,GI50,OVCAR-5 ovarian,15.1 µM
same,TGI,OVCAR-5 ovarian,28.4 µM
same,GI50,PC-3 prostate,15.2 µM
same,TGI,PC-3 prostate,34.9 µM
same,GI50,SK-OV-3 ovarian,> 100 µM
same,TGI,SK-OV-3 ovarian,> 100 µM
same,GI50,HOP-62 NSCLC,18 µM
same,TGI,HOP-62 NSCLC,36.4 µM
same,GI50,A549 NSCLC,15.7 µM
same,TGI,A549 NSCLC,42 µM
same,GI50,NCI/ADR-RES ovarian,30.9 µM
same,TGI,NCI/ADR-RES ovarian,> 100 µM
same,GI50,MDA-MB-231 breast,13.7 µM
same,TGI,MDA-MB-231 breast,26.5 µM
same,GI50,NCI-H226 lung,17.8 µM
same,TGI,NCI-H226 lung,42.9 µM
same,GI50,HL-60(TB) leukemia,14.8 µM
same,TGI,HL-60(TB) leukemia,37 µM
same,GI50,HS 578T breast,18.7 µM
same,TGI,HS 578T breast,73.4 µM
same,GI50,RPMI-8226 leukemia,12.9 µM
same,TGI,RPMI-8226 leukemia,38.4 µM
same,GI50,K-562 leukemia,6.6 µM
same,TGI,K-562 leukemia,27 µM
same,GI50,OVCAR-3 ovarian,15.6 µM
same,TGI,OVCAR-3 ovarian,30.9 µM
same,GI50,MDA-MB-435,29.4 µM
same,TGI,MDA-MB-435,> 100 µM
same,GI50,LOX IMVI melanoma,18.2 µM
same,TGI,LOX IMVI melanoma,39.7 µM
same,GI50,SK-MEL-28 melanoma,16.4 µM
same,TGI,SK-MEL-28 melanoma,31.6 µM
same,GI50,RXF 393 renal,5.11 µM
same,TGI,RXF 393 renal,21.9 µM
same,GI50,SK-MEL-2 melanoma,> 100 µM
same,TGI,SK-MEL-2 melanoma,> 100 µM
same,GI50,HT29 colon,14.9 µM
same,TGI,HT29 colon,31.5 µM
same,GI50,UO-31 renal,15.2 µM
same,TGI,UO-31 renal,32.1 µM
same,GI50,A498 renal,> 100 µM
same,TGI,A498 renal,> 100 µM
same,GI50,MCF7 breast,18.7 µM
same,TGI,MCF7 breast,41.6 µM
same,GI50,IGROV1 ovarian,17.8 µM
same,TGI,IGROV1 ovarian,37.6 µM
same,GI50,MDA-MB-468 breast,13.7 µM
same,TGI,MDA-MB-468 breast,26.7 µM
same,GI50,SF-268 CNS,> 100 µM
same,TGI,SF-268 CNS,> 100 µM
same,GI50,MALME-3M melanoma,17.3 µM
same,TGI,MALME-3M melanoma,36.4 µM
same,GI50,TK-10 renal,14.3 µM
same,TGI,TK-10 renal,27.9 µM
same,GI50,NCI-H522 lung,32.1 µM
same,TGI,NCI-H522 lung,> 100 µM
same,GI50,DU-145 prostate,14.6 µM
same,TGI,DU-145 prostate,28.5 µM
same,GI50,ACHN renal,17.3 µM
same,TGI,ACHN renal,33 µM
same,GI50,786-0 renal,16.7 µM
same,TGI,786-0 renal,32.2 µM
same,GI50,COLO 205 colon,10.3 µM
same,TGI,COLO 205 colon,23.9 µM
same,GI50,EKVX NSCLC,15.2 µM
same,TGI,EKVX NSCLC,30.2 µM
